From patent publication US4500531A, “Therapeutical use of (1-cinnamoyl or 1-phenethylcarbonyl) piperazine derivatives” (priority 1982, dated 1985)
Counter-ions that a name gives are not always drawn. Like-named read-outs stand apart in the source and are kept apart here.

Columns and labels:
[1] = cited from earlier work; for vasodilatory activity: earlier patents and literature; for pharmacological activity as previously considered: up to the present, in the pharmacological field, earlier literature
[2] = pharmacological study: stimulation or protection of cerebral functions; assay type: in vivo; conditions: thorough pharmacological study
Protocol: The stimulating or protecting activities have been shown particularly by the test of the mnesic retention of exploratory activity carried out in accordance with the following method: in an ACTIMETRE APELAB apparatus (BOISSIER and SIMON, Arch. Inter. Pharmacodyn. 158, 212, (1965), the exploratory activity of SWISS-WEBSTER male mice was measured for 5 minutes, then the animals were given an intraperitoneal injection or oral administration of the derivatives of formula (I), the salts thereof or of physiological serum. After a week, the exploratory activity of the treated animals is again measured and the effect of the mnesic retention is measured by an habituation, i.e., by a statistically significant reduction (t of STUDENT in paired groups) of the exploratory activity.

[3] = test of the mnesic retention of exploratory activity (habituation); assay type: in vivo, SWISS-WEBSTER male mice; conditions: Mus musculus, ip, 168 h, read-out: % of the diminution of the exploratory activity; for inhibition in vivo at 10 mg/kg: dose 10 mg/kg i.p.
[4] = approximate acute toxicity (method of MILLER and TAINTER); conditions: in vivo; for mortality: read-out: lethality
Protocol: The approximate acute toxicity is determined according to the method described by MILLER and TAINTER in Proc. Soc. Exp. Biol. Med. 57, 261, (1944).

[5] = dose 3 mg/kg i.p., retest after one week, mice

For `CCOC(=O)CN1CCN(C(=O)/C=C/c2cc(OC)c(OC)c(OC)c2)CC1`, the vasodilatory activity [1] is given as “peripheral and coronary vasodilators”.
In the case of `COc1cc(/C=C/C(=O)N2CCN(CC(=O)N3CCCC3)CC2)cc(OC)c1OC`, the vasodilatory activity [1] is listed as “peripheral and coronary vasodilators”.
For `COc1cc(/C=C/C(=O)N2CCN(CC(=O)O)CC2)cc(OC)c1OC` [Code Number 71, trans 1-(3,4,5-trimethoxy)cinnamoyl 4-hydroxycarbonylmethyl piperazine, hydrochloride], the “activity in the stimulation or protection of cerebral functions” value [2] is given as “important activities in the stimulation or protection of cerebral functions” and the “pharmacological activity as previously considered” value (from here on “pharmacological activity”) ([1]; listed as Ia, hydrochloride) is given as “inactive”.
For `COc1cc(/C=C\C(=O)N2CCN(CC(=O)N3CCCC3)CC2)cc(OC)c1OC` [Code Number 72, cis 1-(3,4,5-trimethoxy)cinnamoyl 4-pyrrolidinocarbonylmethyl)piperazine, oxalate], the “activity in the stimulation or protection of cerebral functions” value [2] is listed as “important activities in the stimulation or protection of cerebral functions” and the “pharmacological activity” value ([1]; listed as Ib) is listed as “inactive”.
`COc1cc(/C=C/C(=O)N2CCN(CC(=O)NC(C)C)CC2)cc(OC)c1OC` [compound 65] showed an inhibition in vivo at 10 mg/kg ([3]; retest after one week, mice) of 17.9% and an LD50 ([4]; iv) of 475 mg/kg.
For `COc1cc(/C=C/C(=O)N2CCN(CC(=O)N3CCCCC3)CC2)cc(OC)c1OC` [compound 66], the inhibition in vivo at 3 mg/kg [3, 5] was 35.2% and the LD50 ([4]; po) was 2250 mg/kg.
With `COc1cc(/C=C/C(=O)N2CCN(CC(=O)N3CCCCCCC3)CC2)cc(OC)c1OC` [compound 67] the inhibition in vivo at 3 mg/kg [3, 5] was 26.4% and the LD50 ([4]; iv) was 225 mg/kg.
With `COc1ccc(CCN(C)C(=O)CN2CCN(C(=O)/C=C/c3cc(OC)c(OC)c(OC)c3)CC2)cc1OC` [compound 68] the inhibition in vivo at 10 mg/kg ([3]; retest after one week, mice) was 15.8% and the LD50 ([4]; iv) was 200 mg/kg.
For `COc1cc(/C=C/C(=O)N2CCN(CC(=O)NC(C)C)CC2)cc(OC)c1O` [compound 69], the inhibition in vivo at 3 mg/kg [3, 5] was 23.8%, the LD50 ([4]; po) was 2000 mg/kg and the mortality ([4]; po, 2000 mg/kg p.o.) was 0%.
For `COc1cc(CCC(=O)N2CCN(CC(=O)NC(C)C)CC2)cc(OC)c1OC` [compound 70], the inhibition in vivo at 30 mg/kg ([3]; dose 30 mg/kg i.p., retest after one week, mice) was 16.2%, the LD50 ([4]; po) was 2000 mg/kg and the mortality ([4]; po, 2000 mg/kg p.o.) was 0%.
`COc1cc(/C=C/C(=O)N2CCN(CC(=O)O)CC2)cc(OC)c1OC` [compound 71] gave an inhibition in vivo at 1 mg/kg ([3]; dose 1 mg/kg i.p., retest after one week, mice) of 31.9%, an LD50 ([4]; po) of 1000 mg/kg and a mortality ([4]; po, 1000 mg/kg p.o.) of 0%.
Work on `COc1cc(/C=C\C(=O)N2CCN(CC(=O)N3CCCC3)CC2)cc(OC)c1OC` [compound 72] yielded an inhibition in vivo at 3 mg/kg [3] of 21%.
In the case of `COc1cc(/C=C/C(=O)N2CCN(CC(=O)O)CC2)cc(OC)c1OC` [drawing 11], the “pharmacological activity” value [1] is listed as “non-active”.
In the case of `COc1cc(/C=C\C(=O)N2CCN(CC(=O)N3CCCC3)CC2)cc(OC)c1OC` [drawing 13], the “pharmacological activity” value [1] is listed as “non-active”.
For `COc1cc(CCC(=O)N2CCN(CC(=O)NC(C)C)CC2)cc(OC)c1OC` [drawing 15], the vasodilatory activity [1] is listed as “peripheral and coronary vasodilators”.
In the case of `COc1cc(/C=C/C(=O)N2CCN(CC(=O)NC(C)C)CC2)cc(OC)c1O` [drawing 16], the vasodilatory activity [1] is listed as “coronary vasodilator”.
